Experimental data from paper PMC9977398, “Next-generation membrane-active glycopeptide antibiotics that also inhibit bacterial cell division” (Chemical Science, 2023).
≈ marks a conversion by molar mass, not a printed value. Read-outs that look alike come from different tables or passages of the source.

Columns and labels:
[1] = tested on: MRSA; assay: Frequency of resistance; type: cell-based, S. aureus
Excerpt: Having observed the multiple mechanisms of VanQAmC10, the potential as a preclinical candidate was examined. […] The frequency of resistance for both vancomycin and VanQAmC10 against MRSA was <10^−8 indicating the absence of spontaneous mutants.

[2] = tested on: ΔamiAC MG1655 E. coli; assay: Microscopy of ΔamiAC MG1655 E. coli; type: cell-based; conditions: sub-inhibitory concentrations: vancomycin 3 μM, VanQAmC10 2 μM (Fig. 5D)
Protocol: The bacterial amidases help cleave the septum in the final stage of cell division to produce daughter cells.[39] In the absence of amidases, chains of unseparated cells are formed (Fig. 5D). These retain distinct cytoplasmic compartments but share an outer membrane.[39] These cells are known to be hypersensitive to antibiotics and detergents. However, ΔamiAC mutations are resistant to killing by cephalexin.[38] The MIC of VanQAmC10 against the ΔamiAC mutant was reduced to 4 μM, while that of vancomycin was >10 μM. […] This is indicative of impaired cell division. Cell debris due to lysis after compound treatment are also visible. […]
from 10 μg/mL. The bacteria with compounds and untreated control were incubated for 18 h at 37 ̊C under shaking and OD600 was measured.
Microscopy of ΔamiAC MG1655 E. coli
ΔamiAC MG1655 was cultured overnight in LB media at 37 ̊C. […]
MRSA ATCC 33591 was grown to mid-log phase at 37 °C. […] The viable bacteria were then counted after 48 h incubation at 37 °C. […]
Antagonization of antibacterial activity of AAV-qC10 was determined by addition of 500 μM N,N՛-diacetyl–L-Lys–D-Ala–D-Ala or 100 μg/mL of lipoteichoic acid to serial dilutions of the test compound. The MIC was then determined against MRSA by measuring the OD600 18-24 […]
Vancomycin was chosen as control antibiotic for MRSA. The initial MIC values of VanQAmC10, vancomycin were determined against the respective bacteria. […]

[3] = tested on: MRSA; assay: Antagonization assay with Ac2KAA or lipoteichoic acid; type: cell-based, S. aureus; conditions: for change in MIC in presence of lipoteichoic acid: 100 μg/mL lipoteichoic acid as competing ligand
Protocol: Ac2KAA can act as a competitive ligand to the target of glycopeptide antibiotics and therefore antagonize antibacterial activity. In the presence of 500 μM of Ac2KAA, the activity of VanQAmC10 (8) was reduced by 2-fold. However, the MIC of vancomycin increased from 0.6 μM to >30 μM ([…] increase in MIC) in presence of the same amount of Ac2KAA. The 2-fold reduction in the activity of VanQAmC10 (8) accounts for the loss of activity due to D-Ala–D-Ala binding. This implied that it acted through additional mechanisms that are independent of Ala-D-Ala binding. The presence of the positive charge in VanQAmC10 (8) could result in interactions with the negatively charged components of the bacterial cell wall like teichoic acid. C-terminal trimethyl ammonium modified vancomycin derivative has been reported to bind to teichoic acid.[32] […]
Antagonization of antibacterial activity of AAV-qC10 was determined by addition of 500 μM
N,N՛-diacetyl–L-Lys–D-Ala–D-Ala or 100 μg/mL of lipoteichoic acid to serial dilutions of the […]

[4] = tested on: VRSA 4 (vancomycin-resistant S. aureus); assay: MIC determination, micro-dilution broth; type: cell-based; conditions: Staphylococcus aureus, read-out: Minimum inhibitory concentration, VRSA 4
Protocol: (§1) The increase in the carbon content of substituted moieties from six (1) to seven (2 and 3) to ten (5) to twelve (4), increased activity. […]
(§2) Test compound was assayed in a micro -dilution broth format as per the CLSI guideline. The bacterial freeze dried stock samples were stored at -80 °C. About 5 μL of these stocks were added to 3 mL of the respective broth and the culture was grown for 6 h at 37°C with prior to the experiments. This 6 h grown culture was diluted to give effective cell concentration of 10 5 CFU/mL which was then used for determining MIC. Compounds were serially diluted 2 -fold, in sterile millipore water and 50 μL of these serial dilutions were added to the wells of 96 well plate followed by the addition of about 150 μL of bacterial solution. The plates were then incubated for 18-24 h at 37 °C. The O.D. value at 600 nm was recorded using TECAN (Infinite series, M200 pro) Plate Reade r. Each concentration had triplicate values and the whole experiment was done at least twice and the MIC value was determined by taking the average of triplicate O. D. values for each concentration and plotting it against concentration. The data was then subjected to sigmoidal fitting. From the curve the MIC value was determined, as the point where the O. D. was similar to that of control having no bacteria.

[5] = tested on: VRSA 12 (vancomycin-resistant S. aureus); assay: MIC determination, micro-dilution broth; type: cell-based; conditions: Staphylococcus aureus, read-out: Minimum inhibitory concentration, VRSA 12
Protocol: as §1, §2

[6] = tested on: VRE 51559 (vancomycin-resistant E. faecium, VanA phenotype, ATCC 51559); assay: MIC determination, micro-dilution broth; type: cell-based
Protocol: as §1, §2

[7] = tested on: VRE 51575 (vancomycin-resistant E. faecalis, VanB phenotype, ATCC 51575); assay: MIC determination, micro-dilution broth; type: cell-based
Protocol: as §1, §2

[8] = tested on: VRSA 1 (vancomycin-resistant S. aureus); assay: MIC determination, micro-dilution broth; type: cell-based; conditions: Staphylococcus aureus, read-out: Minimum inhibitory concentration, VRSA 1
Protocol: as §1, §2

Structure (SMILES) | frequency of resistance [1] | morphology of ΔamiAC mutant [2] | change in MIC in presence of lipoteichoic acid [3] | fold reduction of activity in presence of Ac2KAA ([3]; 500 μM Ac2KAA, MRSA) | MIC [4] | MIC [5] | MIC ([6]; Enterococcus; read-out: Minimum inhibitory concentration, VRE 51559) | MIC ([7]; Enterococcus; read-out: Minimum inhibitory concentration, VRE 51575) | MIC [8] | fold increase in MIC in presence of Ac2KAA ([3]; 500 μM Ac2KAA, MRSA) | MIC ([3]; Staphylococcus aureus, 500 μM Ac2KAA, MRSA, read-out: MIC in presence of Ac2KAA) | MIC ([6]; Enterococcus, read-out: Minimum inhibitory concentration, VRE 51559) | MIC ([7]; Enterococcus, read-out: Minimum inhibitory concentration, VRE 51575)
CCCCCCCCCCNC(=O)C[N+](C)(C)CCCNC(=O)C1NC(=O)C2NC(=O)C(NC(=O)C3NC(=O)C(CC(N)=O)NC(=O)C(NC(=O)C(CC(C)C)NC)C(O)c4ccc(c(Cl)c4)Oc4cc3cc(c4OC3OC(CO)C(O)C(O)C3OC3CC(C)(N)C(O)C(C)O3)Oc3ccc(cc3Cl)C2O)c2ccc(O)c(c2)-c2c(O)cc(O)cc21 (stereo not shown) [VanQAmC10 (8)] | < 10^−8 | larger cell phenotypes of variable sizes | no change in the MIC | 2 fold | – | – | – | – | – | – | – | – | –
CNC(CC(C)C)C(=O)NC1C(=O)NC(CC(N)=O)C(=O)NC2C(=O)NC3C(=O)NC(C(=O)NC(C(=O)NCCC[N+](C)(C)Cc4ccc(-c5ccccc5)cc4)c4cc(O)cc(O)c4-c4cc3ccc4O)C(O)c3ccc(c(Cl)c3)Oc3cc2cc(c3OC2OC(CO)C(O)C(O)C2OC2CC(C)(N)C(O)C(C)O2)Oc2ccc(cc2Cl)C1O (stereo not shown) [VanQbiph (4)] | – | – | – | – | 3.9 µM | 15.7 µM | 6.1 µM | 12.3 µM | 7.8 µM | – | – | – | –
CN[C@H](CC(C)C)C(=O)N[C@H]1C(=O)N[C@@H](CC(N)=O)C(=O)N[C@H]2C(=O)N[C@H]3C(=O)N[C@H](C(=O)N[C@H](C(=O)O)c4cc(O)cc(O)c4-c4cc3ccc4O)[C@H](O)c3ccc(c(Cl)c3)Oc3cc2cc(c3O[C@@H]2O[C@H](CO)[C@@H](O)[C@H](O)[C@H]2O[C@H]2C[C@](C)(N)[C@H](O)[C@H](C)O2)Oc2ccc(cc2Cl)[C@H]1O [Vancomycin, reference compound] | < 10^−8 | few cells appear larger and bulky while most appear similar to the untreated bacteria | no change in the MIC | – | 345 µM (≈ 500 µg/mL) | 345 µM (≈ 500 µg/mL) | – | – | 345 µM (≈ 500 µg/mL) | > 40 fold | > 30 µM | 250 µM (≈ 362 µg/mL) | 750 µM (≈ 1090 µg/mL)
